Here are results for one molecule from patent EP0085283A1, “Pyroglutamyl-tryptophan derivatives, process for their preparation and their therapeutic applications” (Società Italo-Britannica L. Manetti - H. Roberts & C., priority 1981, dated 1983).

SMILES strings stand for the structures.

Common to all, as to format: in vivo
For test [1], the system named is male rats of Wistar strain. The test can be described thus: Hot plate test for analgesia. As to conditions: 10 mg/kg ip. As for the experimental part: (§1) Behavioral effects of DL-pyroglutamyl-tryptophan (pGlu-Trp) have been studied in male rats of Wistar strain (purchased from Morini, Italy), weighing 130+10 g at the onset of experiments. Animals were kept under light- dark cycle (lights on between 8.00 and 20.00) with standard food and water available ad lib. Animals were injected intraperitoneally (ip) with 10 or 100 mg/kg of pGlu-Trp dissolved in a solution of NaHCO3 1 N and adjusted at pH 7.4 with HC1 0.1 N. Control animals received injection of the vehicle alone. Injections were performed 1 h prior to the behavioral testing. The animals were used only once for the behavioral experiments.
Hot plate test for analgesia was studied with a circular hot plate ([…]) where the animals were placed singularly.
The latency in sec to the first behavioral reaction to hot pain (licking of paw) was recorded.

For test [2], the system named is male rats of Wistar strain. The test can be described thus: Open field behavior in a circular open field arena. Conditions: 10 mg/kg ip. How it is done:
as §1
Open field behavior was studied in a circular open field arena. Ambulation (number of floor units entered), rearing, grooming and defecation scores were recorded during a 5-min observation session.

Test [3] relates to male rats of Wistar strain. The test can be described thus: Acquisition of shuttle-box active avoidance behavior (single session test). Conditions: 1 h prior to testing. How it is done: as §1
Acquisition of active avoidance behavior was studied in a single session test. The rats were trained to avoid the unconditioned stimulus (US) of a scrambled electrical footshock (0.20 mA) delivered through the grid floor. The conditioned stimulus (CS) was a buzzer presented for 5 sec prior to the US. If no escape occurred within 20 sec of CS/US presentation, the shock was terminated. A maximum of 30 conditioning trials were given with a variable intertrial interval averaging 60 sec. The learning criterion was 5 consecutive conditioned avoidance responses (CARs). For those animals that reached this criterion in less than 30 trials, the remaining trials up to a total of 30 were considered as lARs. Indexes of avoidance behavior were the total number of CARs and the number of learners.

In the case of `O=C1CC[C@@H](C(=O)N[C@@H](Cc2c[nH]c3ccccc23)C(=O)O)N1` (racemic) [pGlu-Trp, pyroglutamyltryptophan], the “analgesic effect (latency to licking of paw)” value in test [1] is given as “No analgesic effect”. For the same molecule, the defecation boli entry in test [2] was “decreased”. In test [2] (5-min observation session, controls 94.5+4.7), the “Ambulation (number of floor units entered)” value is 78.5+4.4. Moreover, in test [2] (treated versus control rats), the grooming entry is “No difference” and the rearing entry is “No difference”. The “total number of CARs” value in test [3] (10 mg/kg ip, controls 14.8+1.50, difference not significant) was 12.7+1.99. For the same molecule, the “number of CARs” value in test [3] (100 mg/kg ip, controls 14.2+1.47, p<0.02) is 19.0+1.21. For the same molecule, the percentage of learners in test [3] (100 mg/kg ip, controls 66.6%) was found to be 90.9%.
